Assays:
Format in all cases: cell-based
[1] = test system: Alternaria solani mycelia; test: Photodynamic inhibition of Alternaria solani mycelia, percentage of dead samples after 7 days on agar
Protocol: (§1) In the experiments, Alternaria solani mycelia were grown in liquid medium for 24 hours. Small spheres of the mycelia (average diameter 2 mm) were incubated for 100 minutes with 100 μM of Mg-Chlorophyllin with 0 to 5 mM of Disodium-EDTA. Samples were illuminated with 395 nm (fluence 106.6 J cm^−2) for 120 mins and the radial growth of mycelial patches after 7 days on agar medium was measured. A sample was considered dead, if there was no growth observable after 7 days on agar plates.
as §1, with “Chlorin E6” for “100 μM of Mg-Chlorophyllin”, “or without” for “0 to”, “disodium-EDTA.” for “Disodium-EDTA.”
The protocol for the PDI of A. solani was as follows (for Experiment 2 and 5): • Grow A. solani on tomato-agar for some days. • Transfer parts of the growing mycelium form the edge of the A. solani (no conidia) to liquid tomato medium. • Incubate overnight at 26° C. under constant agitation. • Transfer the grown mycelia (spheres of mycelia, approximately 2 mm in diameter) to 24 well plates. • Add 500 microlitres of the PS to the well (PBS for the Co and light only controls). • Incubate under agitation for 100 minutes. • Illuminate under agitation for 120 minutes. • Transfer the treated mycelia to tomato-agar plates and incubate for one week at room temperature. • Evaluate by counting of dead samples.

Sclerotinia homoeocarpa = test: Radial growth of dollar spot fungus after treatment of plugs in PBS (24 well plates), dark vs light; conditions: for inhibition at 500 µM: Clarireedia homoeocarpa
Protocol: In this example, control of dollar spot fungus (Sclerotinia homoeocarpa) with chlorins combined with a chelating agent was assessed. Treatments were prepared in Phosphate Buffered Saline (PBS) in 24 well plates (in duplicates for light vs. dark incubation) at desired concentrations. Then, a 5 mm diameter plug of a Sclerotinia homoeocarpa isolate (3 isolates total tested) was inoculated into the PBS and incubated at 21° C. in the dark for 2 hours. After 2 hours, one of the 24 well plates (with isolates in triplicate) is left in the dark and one 24 well plate is placed under illumination for 1 hour (all at 21° C.). Following illumination, fungal plugs are removed from PBS, blotted dry on sterile filter paper and transferred to non-amended Potato Dextrose Agar (PDA). Radial growth of the fungus is monitored daily until the growth of S. homoeocarpa reaches the edge of the Petri-dish. Illumination is provided by LED lights emitting about 1000 μmol/m^2/s photosynthetically active radiation (PAR). In this example, control of dollar spot fungus (Sclerotinia homoeocarpa) with Zinc Protoporphyrin IX (Zn-PPIX) combined with EDTA was assessed. Treatments were prepared in Phosphate Buffered Saline (PBS) in 24 well plates (in duplicates for light vs. dark incubation) at desired concentrations. Then, a 5 mm diameter plug of a Sclerotinia homoeocarpa isolate (3 isolates total tested) was inoculated into the PBS and incubated at 21° C. in the dark for 2 hours. After 2 hours, one of the 24 well plates (with isolates in triplicate) is left in the dark and one 24 well plate is placed under illumination for 1 hour (all at 21° C.). Following illumination, fungal plugs are removed from PBS, blotted dry on sterile filter paper and transferred to non-amended Potato Dextrose Agar (PDA). Radial growth of the fungus is monitored daily until the growth of S. homoeocarpa reaches the edge of the Petri-dish. Illumination is provided by LED lights emitting about 1000 μmol/m^2/s photosynthetically active radiation (PAR). In this example, control of dollar spot fungus (Sclerotinia homoeocarpa) with bacteriochlorin combined with EDTA was assessed. Treatments were prepared in Phosphate Buffered Saline (PBS) in 24 well plates (in duplicates for light vs. dark incubation) at desired concentrations. Then, a 5 mm diameter plug of a Sclerotinia homoeocarpa isolate (3 isolates total tested) was inoculated into the PBS and incubated at 21° C. in the dark for 2 hours. After 2 hours, one of the 24 well plates (with isolates in triplicate) is left in the dark and one 24 well plate is placed under illumination for 1 hour (all at 21° C.). Following illumination, fungal plugs are removed from PBS, blotted dry on sterile filter paper and transferred to non-amended Potato Dextrose Agar (PDA). Radial growth of the fungus is monitored daily until the growth of S. homoeocarpa reaches the edge of the Petri-dish. Illumination is provided by LED lights emitting about 1000 μmol/m^2/s photosynthetically active radiation (PAR). In this example, control of dollar spot fungus (Sclerotinia homoeocarpa) with Aluminum chlorin e6 combined with EDTA was assessed. Treatments were prepared in Phosphate Buffered Saline (PBS) in 24 well plates (in duplicates for light vs. dark incubation) at desired concentrations. Then, a 5 mm diameter plug of a Sclerotinia homoeocarpa isolate (3 isolates total tested) was inoculated into the PBS and incubated at 21° C. in the dark for 2 hours. After 2 hours, one of the 24 well plates (with isolates in triplicate) is left in the dark and one 24 well plate is placed under illumination for 1 hour (all at 21° C.). Following illumination, fungal plugs are removed from PBS, blotted dry on sterile filter paper and transferred to non-amended Potato Dextrose Agar (PDA). Radial growth of the fungus is monitored daily until the growth of S. homoeocarpa reaches the edge of the Petri-dish. Illumination is provided by LED lights emitting about 1000 μmol/m^2/s photosynthetically active radiation (PAR). […]

Erwinia amylovora = test: Photodynamic inactivation of Erwinia amylovora grown in liquid medium, CFU counted on plates; conditions: Table 1
Protocol: E. amylovora is grown in liquid medium. Samples are incubated for 30 min with 100 μM of Mg-Chlorophyllin with or without 5 mM of Disodium-EDTA, and then illuminated with 395 nm (fluence 26.6 J cm^−2) for 30 mins. CFU of the bacteria is counted on the plates.
In the experiment, E. amylovora were grown in liquid medium. Samples were incubated for 30 min with 100 μM of Mg-Chlorophyllin with or without Chelators, and then illuminated with 395 nm (fluence 26.6 J cm^−2) for 30 mins. CFU of the bacteria was counted on the plates.

[2] = Table 22A, dark, rate 500 μM, growth between 48 and 72 hours
[3] = Table 22B, light, rate 500 μM, growth between 48 and 72 hours

C=Cc1c(C)c2cc3nc(c(CC(=O)[O-])c4[n-]c(cc5nc(cc1[n-]2)C(C)=C5CC)c(C)c4C(=O)[O-])C(CCC(=O)[O-])C3C.[Mg+2].[Na+].[Na+].[Na+] (centres unmarked) [Mg-Chlorophyllin, Mg-chlorophyllin]
dead % ([1]; Table 2, Mg-Chlorophyllin 100 μM without EDTA, in light): 11.5% | % Inhibition (Sclerotinia homoeocarpa; Table 18A, dark, rate 10 μM): −3.98% | Mean Radial Growth (Sclerotinia homoeocarpa; Table 18A, dark, rate 10 μM): 11.61 mm | % Inhibition (Sclerotinia homoeocarpa; Table 18A, dark, rate 100 μM): −11.94% | Mean Radial Growth (Sclerotinia homoeocarpa; Table 18A, dark, rate 100 μM): 12.50 mm | % Inhibition (Sclerotinia homoeocarpa; Table 18B, light, rate 10 μM): 31.66% | Mean Radial Growth (Sclerotinia homoeocarpa; Table 18B, light, rate 10 μM): 7.56 mm | % Inhibition (Sclerotinia homoeocarpa; Table 18B, light, rate 100 μM): 22.61% | Mean Radial Growth (Sclerotinia homoeocarpa; Table 18B, light, rate 100 μM): 8.56 mm | % Inhibition (Sclerotinia homoeocarpa; Table 25A, dark, rate 5 μM): 1.04% | Mean Radial Growth (Sclerotinia homoeocarpa; Table 25A, dark, rate 5 μM): 10.56 mm | % Inhibition (Sclerotinia homoeocarpa; Table 25B, light, rate 5 μM): 37.76% | Mean Radial Growth (Sclerotinia homoeocarpa; Table 25B, light, rate 5 μM): 6.78 mm | Relative inactivation, CFU (Erwinia amylovora; Mg-Chlorophyllin 100 μM without EDTA, in light (395 nm, 30 mins)): 1.9

O=C(O)CN(CCN(CC(=O)O)CC(=O)O)CC(=O)O [EDTA, disodium EDTA]
dead % ([1]; Table 2, EDTA 5 mM alone, in light): 0% | dead % ([1]; Table 2, EDTA 5 mM alone, no light): 0% | dead % ([1]; Table 2, EDTA 50 mM alone, in light): 0% | dead % ([1]; Table 2, EDTA 50 mM alone, no light): 0% | dead % ([1]; Table 2, EDTA 100 mM alone, in light): 0% | dead % ([1]; Table 2, EDTA 100 mM alone, no light): 11.1% | dead % ([1]; Table 2, EDTA 500 mM alone, in light): 0% | dead % ([1]; Table 2, EDTA 500 mM alone, no light): 11.1% | dead % ([1]; Table 5, light, 5 mM Na-EDTA alone): 0% | dead % ([1]; Table 5, no light, 5 mM Na-EDTA alone): 0% | inhibition at 500 µM (Sclerotinia homoeocarpa; Table 18A, dark, rate 500 μM): 39.8% | inhibition at 500 µM (Sclerotinia homoeocarpa; Table 18B, light, rate 500 μM): 16.6% | inhibition at 500 µM (Sclerotinia homoeocarpa; Table 19A, light, rate 500 μM): 36% | inhibition at 500 µM (Sclerotinia homoeocarpa; Table 20A, dark, rate 500 μM): 32.8% | inhibition at 500 µM (Sclerotinia homoeocarpa; Table 20B, light, rate 500 μM): 33.5% | inhibition at 500 µM (Sclerotinia homoeocarpa; Table 21A, dark, rate 500 μM): 11.6% | inhibition at 500 µM (Sclerotinia homoeocarpa; Table 21B, light, rate 500 μM): 15.3% | inhibition at 500 µM (Sclerotinia homoeocarpa; [2]): -3.89% | inhibition at 500 µM (Sclerotinia homoeocarpa; [3]): 35.2% | inhibition at 500 µM (Sclerotinia homoeocarpa; Table 31A, dark, rate 500 μM): 13.6% | inhibition at 500 µM (Sclerotinia homoeocarpa; Table 31B, light, rate 500 μM): 36.4% | Mean Radial Growth (Sclerotinia homoeocarpa; Table 18A, dark, rate 500 μM): 6.72 mm | Mean Radial Growth (Sclerotinia homoeocarpa; Table 18B, light, rate 500 μM): 9.22 mm | Mean Radial Growth (Sclerotinia homoeocarpa; Table 19A, light, rate 500 μM): 7.11 mm | Mean Radial Growth (Sclerotinia homoeocarpa; Table 20A, dark, rate 500 μM): 7.17 mm | Mean Radial Growth (Sclerotinia homoeocarpa; Table 20B, light, rate 500 μM): 7.17 mm | Mean Radial Growth (Sclerotinia homoeocarpa; Table 21A, dark, rate 500 μM): 11.06 mm | Mean Radial Growth (Sclerotinia homoeocarpa; Table 21B, light, rate 500 μM): 10.78 mm | Mean Radial Growth (Sclerotinia homoeocarpa; [2]): 14.83 mm | Mean Radial Growth (Sclerotinia homoeocarpa; [3]): 8.89 mm | Mean Radial Growth (Sclerotinia homoeocarpa; Table 31A, dark, rate 500 μM): 12.67 mm | Mean Radial Growth (Sclerotinia homoeocarpa; Table 31B, light, rate 500 μM): 8.17 mm | Relative inactivation, CFU (Erwinia amylovora; EDTA 5 mM alone, in light): 11.1
